# Experimental data from publication PMC7468108 (Communications Biology, 2020).
# What was measured:
# Aβ42 [1] = target: T1, Aβ42 (Homo sapiens, UniProt P05067); test: CD spectroscopy of Aβ42 aggregated with the tested molecules; conditions: 5-fold molar excess of compound
# T1 construct: purchased rPeptide (USA)
# Procedure: The blank was subtracted from the acquired CD spectra. For the CD study in the presence of the tryptophan-galacosylamine molecules, the spectra of hybrid molecules were also recorded separately and subtracted from the respective sample spectra. The normalized data were plotted using Origin pro 2015 software.
# Aβ42 [2] = target: T1, Aβ42; test: TEM of Aβ42 fibrils formed with the tested molecules; conditions: 5-fold excess of compound
# Procedure: These fibrils also generated the amyloid specific gold-green birefringence upon staining with Congo red (Fig. 3, bottom panel and Supplementary Fig. 6)[74].
# Samples (10 µL) were placed for 2 min on 400-mesh copper grids covered with carbon-stabilized Formvar film (Electron Microscopy Sciences (EMS), Hatfield, PA). Excess fluid was removed, and grids were negatively stained with 2% uranyl acetate solution (10 µL) for 2 min. After excess fluid removal, the samples were visualized using a JEM-1400 TEM (JEOL), operated at 80 kV.
# hIAPP = target: T2, hIAPP (Homo sapiens, UniProt P10997); test: Congo red birefringence of hIAPP fibrils formed with the tested molecules; conditions: 5-fold molar excess of compound
# T2 construct: hIAPP is a 37-amino acid neuroendocrine peptide hormone; purchased Peptide 2.0 (USA)
# T2 sequence (P10997 34-70 limits assumed): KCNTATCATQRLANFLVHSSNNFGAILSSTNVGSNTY
# Procedure: When hIAPP was incubated with 5-fold molar excess of the hybrid molecules, no typical fibrillar assemblies were observed, rather some amorphous aggregates of different sizes were detected (Fig. 4, upper panel).
# [3] = target: T3, pre-formed fibrils of Aβ42 (Homo sapiens, UniProt P05067); test: ThT-binding assay, disaggregation of pre-formed Aβ42 fibrils; format: biochemical; conditions: for % amyloid of Aβ42: disaggregation of pre-formed Aβ42 (10 µM) fibrils
# T3 construct: purchased rPeptide (USA)
# Procedure: For efficient treatment of proteinopathies it may be advantageous to disassemble amyloid aggregates/fibrils which are usually already present at the time of diagnosis[75]–[77]. […] Then, various doses of the hybrid molecules were added to the pre-formed fibrils and the mixtures were incubated for additional 10 h. The process of disaggregation was monitored by ThT-binding assay, CD spectroscopy, TEM and Congo red staining (Fig. 5).
# The experiment was performed according to the previous report. […] Kinetics fluorescence data were collected at 37 °C in triplicate using Infinite M200 microplate reader (Tecan, Switzerland), with measurements acquired at 15 min intervals. Excitation and emission wavelengths were set at 440 nm and 485 nm, respectively.
# [4] = target: T3, pre-formed fibrils of Aβ42; test: Congo red birefringence of pre-formed Aβ42 fibrils with the tested molecules; conditions: 5-fold excess of compound
# Procedure: (§1) For efficient treatment of proteinopathies it may be advantageous to disassemble amyloid aggregates/fibrils which are usually already present at the time of diagnosis[75]–[77]. Therefore, the ability of the hybrid molecules to disrupt pre-formed fibrils of Aβ42 and hIAPP was examined. […] According to the ThT kinetic results, this time was sufficient to complete fibril formation (Fig. 2a, d). Then, various doses of the hybrid molecules were added to the pre-formed fibrils and the mixtures were incubated for additional 10 h. The process of disaggregation was monitored by ThT-binding assay, CD spectroscopy, TEM and Congo red staining (Fig. 5).
# [5] = target: T4, pre-formed fibrils of hIAPP (Homo sapiens, UniProt P10997); test: Congo red birefringence of pre-formed hIAPP fibrils with the tested molecules; conditions: 5-fold molar excess of compound
# T4 construct: hIAPP is a 37-amino acid neuroendocrine peptide hormone; purchased Peptide 2.0 (USA)
# T4 sequence (P10997 34-70 limits assumed): T2 sequence (P10997 34-70 limits assumed)
# Procedure: as §1
# [6] = test system: HEK-293 cells exposed to pre-formed hIAPP fibrils; test: XTT assay, reduction of hIAPP-induced cytotoxicity in HEK-293; format: cell-based; conditions: Homo sapiens
# Procedure: The peptide assemblies were then incubated for further 24 h with SH-SY5Y or HEK-293 cells and cell viability was monitored by XTT assay (Fig. 9). […] The mixtures were then independently applied to the respective cells for 24 h, and cell viability was further measured by XTT assay (Fig. 10a).
# The SH-SY5Y and HEK-293 cell lines (2 × 10^5 cells/mL) were cultured in 96-well tissue microplates (100 µL/well) and allowed to adhere overnight at 37 °C. The conjugate molecules were dissolved in DMEM:nutrient mixture F12 (Ham’s) (1:1) (Biological Industries, Israel) at different concentrations. The negative control was prepared as medium without hybrid molecules and treated in the same manner. 100 µL of medium with or without hybrid molecules were added to each well in triplicate. Following incubation for 24 h at 37 °C, cell viability was evaluated using the 2,3-bis(2-methoxy-4-nitro-5-sulfophenyl)-2H-tetrazolium-5-carboxanilide (XTT) cell proliferation assay kit (Biological Industries, Israel) according to the manufacturer’s instructions. Briefly, 100 µL of activation reagent was added to 5 mL of XTT reagent, followed by the addition of 50 µL of activated-XTT solution to each well. After 2 h incubation at 37 °C, color intensity was measured using an ELISA microplate reader at 450 nm and 630 nm. Results are presented as mean and mean standard error. Each experiment was repeated minimum three times.
# For the quantitative data derived from ThT and XTT assays, statistical significance, expressed as p-value, was determined using Student’s t-test calculation applied at the end of the experiments, setting tails to 2 (tailed distribution) and type to 2 (samples equal variance), according to reported methods. From the XTT viability assays, EC50 and Emax values were determined from the dose-response curves of each tested molecule using non-linear least-square data fitting, according to literature.
# T3 sequence (P05067 672-713 limits assumed): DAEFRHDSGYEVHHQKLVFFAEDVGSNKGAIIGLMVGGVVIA
# T1 sequence (P05067 672-713 limits assumed): as above
structure (smiles),measurement,setting,value
NC(Cc1c[nH]c2ccccc12)C(=O)NC(Cc1c[nH]c2ccccc12)C(=O)O (centres unmarked) [WW],"effect on Aβ42 secondary structure (CD), in words",Aβ42 [1],No significant variation
same,"Aβ42 fibril morphology (TEM), in words",Aβ42 [2],did not display any effect
same,"Congo red birefringence of hIAPP, in words",hIAPP,clear gold-green birefringence
same,increase of ThT fluorescence intensity of pre-formed Aβ42 fibrils,[3]; compound added to pre-formed fibrils,~ 20%
same,% amyloid of Aβ42,[3]; molar ratio Aβ42:tested molecule (1:1),105.449%
same,% amyloid of Aβ42,[3]; molar ratio Aβ42:tested molecule (1:5),118.857%
same,% amyloid of Aβ42,[3]; molar ratio Aβ42:tested molecule (5:1),102.097%
same,"Congo red birefringence of pre-formed Aβ42 fibrils, in words",[4],faint birefringence
same,"Congo red birefringence of pre-formed hIAPP fibrils, in words",[5],unchanged
same,viability at 10 µM,"[6]; HEK293, hIAPP (10 µM) : molecule 1:1, HEK-293 cells, normalized XTT data",55.2%
same,viability at 50 µM,"[6]; HEK293, hIAPP (10 µM) : molecule 1:5, HEK-293 cells, normalized XTT data",57.7%
same,viability at 200 µM,"[6]; HEK293, hIAPP (10 µM) : molecule 1:20, HEK-293 cells, normalized XTT data",58.5%
same,viability at 2 µM,"[6]; HEK293, hIAPP (10 µM) : molecule 5:1, HEK-293 cells, normalized XTT data",55.6%
same,EC50,"[6]; HEK293, reduction of cytotoxicity of pre-formed hIAPP fibrils 10 µM, HEK-293",10 µM
